This is an account of results in PubChem BioAssay (NCI).

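Step 1: Grow cells in 96-well plates. Step 2: Expose to compound for 48 hours at 5 concentrations. Step 3: Interpolate endpoints linearly; if unreached, use highest concentration. The concentration for 50% growth inhibition is given as GI50. The concentration for full growth arrest is given as TGI.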

Test systems include 786-0 renal; MDA-MB-435; MCF7 breast; TK-10 renal; A549 NSCLC; OVCAR-4 ovarian; HCT-15 colon; UO-31 renal; OVCAR-3 ovarian; SR leukemia.
What all share (assay): NCI-60 cell line screen, 48 h

Turning to `Nc1ccc(C#Cc2ccccc2C#CCCCCO)cc1`, the GI50 is 13.8 µM with 786-0 renal; 19.7 µM in the assay with MDA-MB-435; 23.5 µM in the assay on MCF7 breast; 21.6 µM in the assay with TK-10 renal; 14.7 µM in the assay with A549 NSCLC; 16.7 µM in the assay on OVCAR-4 ovarian. Also, the GI50 is 15.3 µM with HCT-15 colon, 16.6 µM with UO-31 renal and 23 µM with OVCAR-3 ovarian. For the same compound, the TGI was 27.5 µM in the assay on 786-0 renal; 36.6 µM with MDA-MB-435; 52.2 µM in the assay on MCF7 breast; 46.5 µM in the assay with TK-10 renal; 28.7 µM in the assay on A549 NSCLC; 32.6 µM with OVCAR-4 ovarian. Further, the TGI with HCT-15 colon stood at 28.7 µM; with UO-31 renal it was 30.5 µM; with OVCAR-3 ovarian, 47.2 µM.
In the case of `O=C(Nc1ccc(Br)cc1)C(=O)C(C(=O)c1ccc(Cl)c(Cl)c1)C1OC(=O)c2ccccc21` (configuration not stated), the TGI with 786-0 renal was 30.9 µM; with SR leukemia it was greater than 100 µM; in the assay on TK-10 renal it was 51.6 µM; with A549 NSCLC, 46 µM; in the assay with OVCAR-4 ovarian it was 50.5 µM; in the assay on HCT-15 colon, 53.7 µM. For the same compound, the TGI in the assay on UO-31 renal is 43.2 µM; in the assay on OVCAR-3 ovarian it was 67.3 µM.
As to `COc1cc(/C=C2\[C@@H]3NC(Cc4c(OC)c(C)c(OC)c(OC)c43)C(=O)N2Cc2ccccc2)c(OC)c(C)c1OC`, the TGI with 786-0 renal is greater than 100 µM; in the assay with SR leukemia, 62.8 µM; with TK-10 renal it was greater than 100 µM; in the assay with A549 NSCLC it was greater than 100 µM; in the assay on OVCAR-4 ovarian, 89.8 µM; with UO-31 renal, 80.5 µM. In addition, the TGI with OVCAR-3 ovarian was greater than 100 µM.
`O=C(NC1CCC[C@H]1OC(=O)c1ccccc1)c1ccccc1` (some centres not stated): the TGI with 786-0 renal, with SR leukemia, in the assay on TK-10 renal, in the assay on A549 NSCLC, with OVCAR-4 ovarian and in the assay on UO-31 renal was greater than 100 µM each time. Moreover, in the assay with OVCAR-3 ovarian, the TGI is greater than 100 µM.
On to `CCN1CCN(C(=O)[C@]23CC[C@@H](C)[C@H](C)[C@@H]2C2=CC[C@@H]4[C@@]5(C)CCC(=O)C(C)(C)[C@@H]5CC[C@@]4(C)[C@]2(C)CC3)CC1`, for which the GI50 in the assay with 786-0 renal is 0.814 µM; with MDA-MB-435, 1.05 µM; with MCF7 breast, 0.891 µM; in the assay on TK-10 renal, 1.27 µM; in the assay on A549 NSCLC, 1.47 µM; with OVCAR-4 ovarian, 1.26 µM. Also, the GI50 was 0.977 µM in the assay on HCT-15 colon, 0.726 µM in the assay with UO-31 renal and 1.1 µM in the assay with OVCAR-3 ovarian. Further, the TGI is 1.7 µM with 786-0 renal; 2.3 µM with MDA-MB-435; 2.03 µM in the assay on MCF7 breast; 4.14 µM in the assay with TK-10 renal; 5.98 µM in the assay with A549 NSCLC; 4.74 µM in the assay with OVCAR-4 ovarian. For the same compound, the TGI was 2.39 µM in the assay with HCT-15 colon, 1.42 µM with UO-31 renal and 2.44 µM in the assay on OVCAR-3 ovarian.
Take `COC(=O)C1=C(C)NC(=S)NC1c1ccc(N(CCCl)CCCl)cc1Cl` (configuration not stated): the TGI in the assay with 786-0 renal is greater than 100 µM; in the assay on MDA-MB-435, 37.4 µM; in the assay on MCF7 breast, 66.1 µM; with TK-10 renal, 98.6 µM; in the assay with A549 NSCLC, greater than 58.7 µM; in the assay on OVCAR-4 ovarian, greater than 84.1 µM. Moreover, the TGI is greater than 66.5 µM in the assay on HCT-15 colon, greater than 80.7 µM in the assay on UO-31 renal and greater than 94 µM in the assay with OVCAR-3 ovarian.
`Cc1cc(-c2ccccc2)nc(Nc2cc3ccccc3[nH]2)n1`: the TGI in the assay on 786-0 renal, with SR leukemia, in the assay with TK-10 renal, in the assay with A549 NSCLC, in the assay with OVCAR-4 ovarian and with HCT-15 colon was greater than 100 µM each time. In addition, the TGI in the assay on UO-31 renal and with OVCAR-3 ovarian was greater than 100 µM each time.
`Nc1nc2cc(Cl)ccc2n1N`: the TGI with 786-0 renal, in the assay with SR leukemia, in the assay with MDA-MB-435, with MCF7 breast, with TK-10 renal and with A549 NSCLC was greater than 100 µM in each case. Besides, the TGI with HCT-15 colon and in the assay with UO-31 renal was greater than 100 µM in each case.
`CCCCCCCCCC1CC(=O)OC2=C1C(=O)CCC2` (configuration not stated): the TGI in the assay with 786-0 renal, in the assay on SR leukemia, with TK-10 renal, with A549 NSCLC, in the assay with OVCAR-4 ovarian and in the assay with UO-31 renal was greater than 100 µM each time. In the assay with OVCAR-3 ovarian, the TGI was greater than 100 µM.
With `CC(=O)C(CN1C(=O)c2ccccc2C1=O)C(C)=O`, the TGI with 786-0 renal, with MDA-MB-435, in the assay with MCF7 breast, in the assay with TK-10 renal, in the assay on A549 NSCLC and with OVCAR-4 ovarian was greater than 100 µM in each case. The TGI in the assay on HCT-15 colon, in the assay with UO-31 renal and with OVCAR-3 ovarian was greater than 100 µM in each case.
`C/C(=N\N=C(N)N)C(CN1CCOCC1)C(c1ccccc1)c1c(O)c2ccccc2oc1=O` (configuration not stated): the TGI in the assay on 786-0 renal, with SR leukemia, in the assay on TK-10 renal, with A549 NSCLC, in the assay on OVCAR-4 ovarian and in the assay with HCT-15 colon was greater than 100 µM each time. The same compound returned a TGI in the assay on OVCAR-3 ovarian greater than 100 µM.
`O=C(Nc1ccc(Cl)c(Cl)c1)c1ccc(NC2=C(Cl)C(=O)N(Cc3ccccc3)C2=O)cc1`: the GI50 in the assay with 786-0 renal is 7.74 µM; with SR leukemia it was 2.23 µM; in the assay on MDA-MB-435 it was 5.62 µM; in the assay with MCF7 breast, 2.1 µM; with TK-10 renal it was 18.8 µM; in the assay on A549 NSCLC it was 11.9 µM. Moreover, the GI50 in the assay on OVCAR-4 ovarian is 17.2 µM; in the assay with UO-31 renal it was 13.1 µM; in the assay with OVCAR-3 ovarian it was 2.14 µM. Further, the TGI with 786-0 renal worked out at 20.1 µM; with SR leukemia, 5.27 µM; in the assay on MDA-MB-435, 19.5 µM; in the assay with MCF7 breast, 4.82 µM; with TK-10 renal, 39.2 µM; in the assay on A549 NSCLC, 27.3 µM. Besides, the TGI with OVCAR-4 ovarian was 42.1 µM; in the assay on UO-31 renal, 25.8 µM; in the assay with OVCAR-3 ovarian it was 4.86 µM.
Take `C=CC1=C(C)C(/C=c2\[nH]/c(=C/c3[nH]c(CC4NC(=O)C(C)/C4=C\C)c(C)c3CCC(=O)O)c(CC(=O)O)c2C)=NC1=O` (configuration not stated): the TGI in the assay with 786-0 renal, in the assay with SR leukemia, in the assay with TK-10 renal, in the assay on A549 NSCLC, in the assay with OVCAR-4 ovarian and in the assay on HCT-15 colon was greater than 100 µM each time. In addition, the TGI in the assay with UO-31 renal and in the assay with OVCAR-3 ovarian was greater than 100 µM throughout.
